According to patent US20120115149A1, “SEROTONIN TRANSPORTER GENE AND TREATMENT OF ALCOHOLISM” (University of Virginia Patent Foundation, priority 2009, published 2012):
Counter-ions that a name gives are not always drawn.

Key:
[1] = alcohol trials, naltrexone 50 mg/day; cited from earlier work
alcoholics = experiment: Double-blind placebo-controlled trial of ondansetron in alcoholics randomized by 5'-HTTLPR genotype: self-reported drinking; type: in vivo, human
Excerpt: We randomized 283 alcoholics by genotype in the 5′-regulatory region of the 5-HTT gene (LL/LS/SS) in a controlled double-blind trial. […] We genotyped another functional single nucleotide polymorphism (T/G), rs1042173, in the 3′-untranslated region.
Participants. Details of the subject population were similar to those in a previously published study (22). Briefly, our 283 enrollees (73.7% male; 84.4% White, and 15.6% Hispanic) had alcohol dependence but no axis I diagnosis other than nicotine dependence according to the Diagnostic and Statistical Manual of Mental Disorders, 4th edition (23); were aged 20 to 78 years, and scored >8 on the Alcohol Use Disorders Identification Test (24), which assessed the severity of alcohol-related problems.
All subjects provided informed consent to participate.
Subjects were randomized using an urn (25) procedure after the screening visit to either treatment or placebo under each of three different genotypes (LL, LS, or SS alleles of the 5′-HTTLPR) strata. Further characterization of the cohort for rs1042173 of 3′-UTR alleles (i.e., TT/TG/GG) was done post-randomization.
Study procedures. Subjects were enrolled in the study whilst they were still drinking (i.e., without a period of abstinence). At enrollment, we collected self-reported drinking based on the timeline follow-back method over the past 90 days (26), genotyped, and collected white blood cells (WBCs) for expression studies.
From weeks 1 to 12, subjects received weekly assessment of drinking using the timeline follow-back method, adverse events using the Systematic Assessment for Treatment Emergent Events (28), alcohol withdrawal using the revised Clinical Institute Withdrawal Assessment for Alcohol scale (17), concomitant medication use, and pill count.
All subjects received weekly standardized, manual-driven (29, 30) cognitive behavioral therapy in groups of up to eight subjects as their psychosocial treatment. This comprised an integration of cognitive behavioral and social learning theory that enables alcoholic subjects to achieve and maintain abstinence by enhancing their ability to manage high-risk situations, which can trigger alcohol-seeking behavior (31, 32).
Genetics testing. DNA was extracted from the blood of each subject at baseline with a Gentra Puregene® kit (QIAGEN Inc., Valencia, Calif.). The 5′-HTTLPR L/S alleles were determined as described earlier (2, 33) with custom-made primers. The alleles of SNP rs1042173 were genotyped with pre-made TaqMan® genotyping assays (Applied Biosystems, Foster City, Calif.) as reported previously (10).

[2] = cited from earlier work; for effect on binge eating, in words: human, in vivo
[3] = cited from earlier work
[4] = LL genotype, ondansetron (4 μg/kg twice daily, 11 weeks) vs. placebo, averaged across treatment
[5] = ondansetron LL vs. all other genotype and treatment groups combined
[6] = ondansetron LL/TT vs. all other genotype and treatment groups combined
[7] = within ondansetron recipients, LL vs. LS/SS

O=C1CC[C@@]2(O)[C@H]3Cc4ccc(O)c5c4[C@@]2(CCN3CC2CC2)[C@H]1O5 [naltrexone, 17-(Cyclopropylmethyl)-4,5a-epoxy-3,14-dihydroxymorphinan-6-one hydrochloride]
individuals unable to tolerate the dose [1]: about 15%

Cc1nccn1CC1CCc2c(c3ccccc3n2C)C1=O (stereo not drawn) [ondansetron, 9-methyl-3-[(2-methyl-1H-imidazol-1-yl)methyl]-1,2,3,9-tetrahydrocarbazol-4-one]
drinks/drinking day (DDD), difference (alcoholics; [4]): −1.62 | percentage of days abstinent (PDA), difference (alcoholics; [4]): 11.27% | response by age of onset, in words (alcoholics; LL or LL/TT genotype): responded to ondansetron irrespective of age of onset | effect on drinks/drinking day, in words (alcoholics; LL subjects, TT subjects): reduces drinks/drinking day | response to treatment by rs1042173 genotype, in words (alcoholics; alcohol-dependent subjects, TT vs. TG/GG genotype): respond better | reduction in severity of drinking by 5'-HTTLPR genotype, in words (alcoholics; alcoholics with LL genotype vs. LS/SS): significantly greater reduction in the severity of drinking | drinks/drinking day (DDD), difference (alcoholics; [5]): −1.45 | percentage of days abstinent (PDA), difference (alcoholics; [5]): 9.65% | drinks/drinking day (DDD), difference (alcoholics; [6]): −2.63 | percentage of days abstinent (PDA), difference (alcoholics; [6]): 16.99% | drinks/drinking day (DDD), difference (alcoholics; [7]): −1.53 | percentage of days abstinent (PDA), difference (alcoholics; [7]): 9.73% | effect on binge eating, in words [2]: reduce binge eating

O=C1NC(=O)C(c2ccccc2)(c2ccccc2)N1 [phenyloin]
effect on binge eating, in words [2]: reduced binge eating

CC1(C)O[C@@H]2[C@@H](CO[C@@]3(COS(N)(=O)=O)OC(C)(C)O[C@@H]23)O1 [topiramate, 2,3:4,5-Bis-O-(1-methylethylidene)-beta-D-fructopyranose sulfamate]
effect on appetite and weight, in words ([2]; controlled trials in patients with epilepsy): suppression of appetite and weight loss | cognitive impairment, individuals reporting ([3]; general population): 2.4% | occurrence rate of cognitive impairment ([3]; substance abuse field): about 18.7%
